The assay has as its target ABCB1 (P-glycoprotein, P-gp, MDR1) (Homo sapiens, UniProt P08183). The experiment in a line: cell-based.

Chain of ABCB1 (P-glycoprotein, P-gp, MDR1) (P08183 whole entry): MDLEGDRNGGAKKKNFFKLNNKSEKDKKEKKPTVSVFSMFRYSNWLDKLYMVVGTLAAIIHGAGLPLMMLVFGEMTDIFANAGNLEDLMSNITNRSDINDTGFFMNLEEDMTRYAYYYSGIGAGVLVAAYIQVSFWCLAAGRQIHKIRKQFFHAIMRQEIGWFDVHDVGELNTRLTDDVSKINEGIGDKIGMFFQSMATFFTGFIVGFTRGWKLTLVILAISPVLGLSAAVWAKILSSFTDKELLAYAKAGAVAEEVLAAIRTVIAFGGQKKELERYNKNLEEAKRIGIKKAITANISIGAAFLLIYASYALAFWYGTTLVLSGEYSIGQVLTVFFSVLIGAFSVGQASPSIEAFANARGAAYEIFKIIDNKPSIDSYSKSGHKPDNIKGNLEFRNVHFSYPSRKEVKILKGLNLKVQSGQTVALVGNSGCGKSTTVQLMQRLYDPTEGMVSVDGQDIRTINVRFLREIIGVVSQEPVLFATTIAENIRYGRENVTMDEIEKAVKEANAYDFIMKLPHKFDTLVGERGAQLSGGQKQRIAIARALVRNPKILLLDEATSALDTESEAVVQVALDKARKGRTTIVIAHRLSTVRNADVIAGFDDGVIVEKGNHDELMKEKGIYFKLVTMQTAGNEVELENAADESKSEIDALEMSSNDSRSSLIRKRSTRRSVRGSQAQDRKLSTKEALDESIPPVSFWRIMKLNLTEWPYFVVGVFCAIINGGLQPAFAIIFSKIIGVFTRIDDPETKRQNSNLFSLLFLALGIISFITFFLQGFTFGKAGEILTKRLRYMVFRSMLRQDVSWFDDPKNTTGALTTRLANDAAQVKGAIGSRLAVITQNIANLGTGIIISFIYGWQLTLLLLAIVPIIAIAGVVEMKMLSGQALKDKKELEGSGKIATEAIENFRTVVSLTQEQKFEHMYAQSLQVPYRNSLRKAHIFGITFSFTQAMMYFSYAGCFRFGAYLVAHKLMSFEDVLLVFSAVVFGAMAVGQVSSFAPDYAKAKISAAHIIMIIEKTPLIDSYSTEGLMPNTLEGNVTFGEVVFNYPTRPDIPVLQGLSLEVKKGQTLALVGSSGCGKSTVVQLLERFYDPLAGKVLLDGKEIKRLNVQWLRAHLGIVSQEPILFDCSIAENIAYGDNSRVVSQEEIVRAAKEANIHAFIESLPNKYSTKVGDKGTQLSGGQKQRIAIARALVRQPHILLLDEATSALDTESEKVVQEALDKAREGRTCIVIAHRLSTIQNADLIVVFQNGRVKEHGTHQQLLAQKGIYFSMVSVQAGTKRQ

For orientation: IC50 means the concentration that gives 50% inhibition. On to `C=CC(=O)Nc1cc(Nc2nccc(-c3cn(C4CC4)c4ccccc34)n2)c(OC)cc1N(C)CCN(C)C` [almonertinib], for which the IC50 is around 2000 nM.
